The test concerns the target T1, PfFNT V196L (Plasmodium falciparum, UniProt O77389, V196L).
T1 sequence (O77389 1-309 V196L): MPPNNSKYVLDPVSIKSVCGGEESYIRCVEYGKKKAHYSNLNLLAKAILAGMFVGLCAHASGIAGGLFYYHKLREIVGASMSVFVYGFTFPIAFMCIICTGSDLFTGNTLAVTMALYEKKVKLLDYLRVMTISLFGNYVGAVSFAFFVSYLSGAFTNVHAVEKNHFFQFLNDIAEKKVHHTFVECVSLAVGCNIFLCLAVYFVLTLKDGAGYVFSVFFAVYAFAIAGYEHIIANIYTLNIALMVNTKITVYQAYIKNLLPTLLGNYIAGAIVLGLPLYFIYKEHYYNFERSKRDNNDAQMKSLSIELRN
The test is classed as cell-based. To be noted: pH 6.8; read-out: IC50, inhibition of 14C-lactate transport.

As a reminder, the IC50 is the concentration that gives 50% inhibition. With `O=C(/C=C(\O)C(F)(F)C(F)(F)F)c1cccnc1` [BH267.meta], the IC50 is 850 ± 50 nM. For the compound `COc1ccc2c(c1)OC(O)(C(F)(F)C(F)(F)F)CC2=O` (centres unmarked) [MMV007839], the IC50 is 730 ± 70 nM.

These data come from article PMC10433847, “The Plasmodium Lactate/H^+ Transporter PfFNT Is Essential and Druggable In Vivo” (Antimicrobial Agents and Chemotherapy, 2023).
